# Results from patent publication US8846626B2, “Drug composition for treating chronic liver disease and its application” (Shuguang Hospital Affiliated with Shanghai University of …, priority 2010, dated 2014).
# Legend:
# [1] = tested on: rats of bile duct ligation; assay: Bile duct ligation (BDL) rat liver fibrosis model; assay type: in vivo, SD male rats; conditions: BDL 4 weeks; for Hyp (liver tissue Hyp content): intragastric once daily for 3 weeks from week 2; for Hyp (liver tissue Hyp content) / biliary liver fibrosis scores (integral): x±s
# Source text: Effect of active component compatibility of Astragalus soup of anti-hepatic fibrosis for rats of bile duct ligation
# 83 SD male rats, SPF grade, weighing 200˜220 g, by the Shanghai Experimental Animal Center of Chinese Academy of Sciences, Certificate of Conformity: SCXK (Shanghai) 2010-0005, fed on the Shanghai Medical University Experimental Animal Center, free access to water.
# Model rats (75 rats) are cut along the ventral midline, exposing the common bile duct, conversely injected hardener into hilus hepatis, ligating proximal and distal ends of the common bile duct, cutting the middle, closing the abdomen for 4 weeks. Sham-operated rats (8 rats) only have abdomen cut, and closed after freeing the common bile duct.
# Starting from the first day of 2nd week of modeling, the model rats were randomly divided into 5 groups of astragalus soup, A/B combination, A alone, B alone, and UDCA, each group has 12 rats. While continuing modeling, the groups of administration are intervened by eight times of clinical dose amount of a 65 kg adult body weight. Before using, the drug compositions of astragalus soup, A/B combination, A alone, B alone, and UDCA (UDCA: 80 mg·kg^−1·d^−1, ig) are respectively diluted with 10 ml of distilled water, and is processed with intragastric administration according to 10 ml/kg rat body weight dose, once daily for 3 weeks. And sham-operation control rats (8) and model control group (15) are set; rats in the normal group and the model control group are processed with intragastric administration by the same volume of distilled water.
# At the end of 4th week, rats are executed to obtain test samples. HE staining and collagen staining of liver tissue, liver tissue Hyp content, serum liver function: ALT, aspartate aminotransferase, AST, and activity of alkaline phosphatase, ALP, albumin, Alb, and total bilirubin, TBil content.
# [2] = tested on: DMN-induced rat liver fibrosis model; assay: DMN-induced rat liver fibrosis model, orthogonal design; assay type: in vivo, Wistar male rats
# Source text: The DMN-induced rat liver fibrosis model and analysis of orthogonal design is used to obtain the optimal ratio of the composition to lower collagen content in the liver.
# 160 Wistar male rats, (40 in normal group, 120 in the model group), clean level, body weight (150±10) g, provided by the Shanghai Experimental Animal Center of Chinese Academy of Sciences, and is fed, modeled, and observed in Clean Animal room of Shanghai Medical University Experimental Animal Center, free access to water.
# Astragalus Astragalosides and Glycyrrhiza Acid are mixed by weight ratio 3:1, 4:1, 5:1 and 6:1, drug composition A+B in different proportions are randomly selected for subsequent experiments.
# Referring to Ala-Kokko method of modeling (Ala-Kokko L, Pihlajaniemi T, Myers J C et al. Gene expression of type I, III and IV collagens in liver fibrosis induced by dimethylnitrosamine in the rat. Biochem J 1987; 244: 75-9.) DMN is diluted with saline into 0.5% solution, in the model group, 120 rats are intraperitoneally injected by […] dose, once per day, on the beginning 3 days of a week, for 4 weeks. In normal control group, 40 rats are intraperitoneally injected with normal saline of same dose.
# Respectively at the end of three days of modeling, the end of two weeks of modeling, the end of three weeks of modeling, and the end of four weeks of modeling, 10 normal rats, 10 model rats are observed as a model of dynamic observation. Starting from the end of 2 weeks of modeling, the model rats were randomly divided into 1-6 groups of orthogonal design and model group, each having 10 rats. While continuing modeling, the groups of orthogonal design are intervened by eight times of clinical dose amount of a 65 kg adult body weight, administrated respectively in accordance with design amount. Before using, the drug composition is diluted with 10 ml of distilled water, and is processed with intragastric administration according to 10 ml/kg rat body weight dose, once daily for 2 weeks. And normal control rats (10) and model control group (10) are set; rats in the normal group and the model control groups are processed with intragastric administration by the same volume of distilled water.
# Astragalus glycosides A, Glycyrrhiza Acid, B, and drugcomposition A+B are factors for evaluation, each factor were set from two levels (level 1=administration, level 2=no), to obtain the orthogonal design. Model groups and normal groups are set.
# Measurement data is expressed as x±s, the SAS 9.1.2, DAS 2.1.1 and SPSS16.0 statistical software are used to process data, and single-factor analysis of variance is used for comparisons between multiple groups.
# [3] = tested on: DMN-induced rat liver fibrosis model; assay: as above; assay type: in vivo, Wistar male rats; conditions: result in words; compared with original astragalus soup
SMILES,Hyp (liver tissue Hyp content) [1],biliary liver fibrosis scores (integral) [1],serum liver function ALP [1],serum liver function ALT [1],serum liver function AST [1],serum liver function Alb [1],serum liver function TBil [1],"Hyp (hydroxyproline content in liver tissue) ([2]; DMN modeling 4 weeks, intragastric once daily for 2 weeks from end of week 2, x±s)","hyperplasia stages of rat liver collagen: stage 0 ([2]; number of rats at stage 0, DMN 4 weeks)","hyperplasia stages of rat liver collagen: stage I ([2]; number of rats at stage I, DMN 4 weeks)","hyperplasia stages of rat liver collagen: stage II ([2]; number of rats at stage II, DMN 4 weeks)","hyperplasia stages of rat liver collagen: stage III ([2]; number of rats at stage III, DMN 4 weeks)","BMP-7 mRNA, protein and protein expression of P-Smad1/5/8 in liver tissue ([2]; result in words, liver fibrosis in rat liver tissues by DMN)","serum liver function ALP ([2]; serum, DMN 4 weeks, x±SD)","serum liver function ALT ([2]; serum, DMN 4 weeks, x±SD)","serum liver function AST ([2]; serum, DMN 4 weeks, x±SD)","serum liver function Alb ([2]; serum, DMN 4 weeks, x±SD)","serum liver function TBil ([2]; serum, DMN 4 weeks, x±SD)",reduces generating of TGF-β1 [3]
"C[C@H](CCC(=O)O)[C@H]1CC[C@H]2[C@@H]3[C@@H](O)C[C@@H]4C[C@H](O)CC[C@]4(C)[C@H]3CC[C@]12C [UDCA, Ursodeoxycholic acid]","790.16 ± 129.85^$$ μg/g, wet liver weight",6.83 ± 0.75^$$,79.01 ± 5.80 K/100 ml,28.79 ± 8.61 U/L,102.80 ± 26.01 U/L,24.20 ± 3.64 g/L,67.60 ± 9.62^$ μmol/L,,,,,,,,,,,,
"CC1(C)[C@@H](O[C@H]2O[C@H](C(=O)O)[C@@H](O)[C@H](O)[C@H]2O[C@@H]2O[C@H](C(=O)O)[C@@H](O)[C@H](O)[C@H]2O)CC[C@]2(C)[C@H]3C(=O)C=C4[C@@H]5C[C@@](C)(C(=O)O)CC[C@]5(C)CC[C@@]4(C)[C@]3(C)CC[C@@H]12 [B, Glycyrrhiza Acid]","772.00 ± 86.81^$ μg/g, wet liver weight",6.50 ± 0.84^$,77.22 ± 4.05 K/100 ml,26.66 ± 7.89 U/L,93.67 ± 14.46 U/L,25.07 ± 5.18 g/L,67.35 ± 7.39^$ μmol/L,595.74 ± 109.74 µg/g,0,0,5,4,significantly increase,38.77 ± 17.84 K/100 ml,55.18 ± 17.12 U/L,76.61 ± 14.09^ U/L,23.11 ± 5.52 g/L,10.23 ± 5.42 µmol/L,significantly better than the original astragalus soup
